# Assay results from the supplement of paper PMC10307832.
# Columns and labels:
# Assay in all cases: relative viability (nuclei count vs DMSO), 5 days (fraction); higher = more cells survive
# NCI-H1355 = tested on: NCI-H1355
# Summary of the method: (§1)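 One day after seeding in 1536-well plates, lung cancer cell lines were dosed by pin tool. Dosing was either single-drug or a fixed anchor-drug dose plus five library-drug doses (not always all listed) in √10 steps. After 5 days, nuclei were stained in one fix-and-stain step and counted on 4× images, and relative viability is the nuclei count of treated wells over that of vehicle wells, given as the median of duplicate plates.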
# UMC-11 = tested on: UMC-11
# Summary of the method: as §1
# NCI-H1563 = tested on: NCI-H1563
# Summary of the method: as §1
# NCI-H1944 = tested on: NCI-H1944
# Summary of the method: as §1
# NCI-H1651 = tested on: NCI-H1651
# Summary of the method: as §1
# LCLC-97TM1 = tested on: LCLC-97TM1
# Summary of the method: as §1
# ChaGo-K-1 = tested on: ChaGo-K-1
# Summary of the method: as §1
# HCC-44 = tested on: HCC-44
# Summary of the method: as §1
# NCI-H650 = tested on: NCI-H650
# Summary of the method: as §1
# EPLC-272H = tested on: EPLC-272H
# Summary of the method: as §1
# SK-MES-1 = tested on: SK-MES-1
# Summary of the method: as §1
# NCI-H2405 = tested on: NCI-H2405
# Summary of the method: as §1
# LCLC-103H = tested on: LCLC-103H
# Summary of the method: as §1
# NCI-H322M = tested on: NCI-H322M
# Summary of the method: as §1
# HCC-827 = tested on: HCC-827
# Summary of the method: as §1
# NCI-H520 = tested on: NCI-H520
# Summary of the method: as §1
# NCI-H2087 = tested on: NCI-H2087
# Summary of the method: as §1
# NCI-H2085 = tested on: NCI-H2085
# Summary of the method: as §1
# EMC-BAC-2 = tested on: EMC-BAC-2
# Summary of the method: as §1
# H3255 = tested on: H3255
# Summary of the method: as §1
# NCI-H2023 = tested on: NCI-H2023
# Summary of the method: as §1
compound,measurement,setting,value
NC(=O)Nc1cc(-c2cccc(F)c2)sc1C(=O)N[C@H]1CCCNC1 [AZD7762] + C[C@@H](Oc1cc(-c2cnn(C3CCNCC3)c2)cnc1N)c1c(Cl)ccc(F)c1Cl [Crizotinib] (partner 1 µM),relative viability,NCI-H1355; first compound 0.01 µM,1.02
same,relative viability,NCI-H1355; first compound 0.03162 µM,1.02
same,relative viability,NCI-H1355; first compound 0.1 µM,1.01
same,relative viability,NCI-H1355; first compound 0.3162 µM,1.14
same,relative viability,NCI-H1355; first compound 1 µM,1.03
same,relative viability,UMC-11; first compound 0.01 µM,0.713
same,relative viability,UMC-11; first compound 0.03162 µM,0.421
same,relative viability,UMC-11; first compound 0.1 µM,0.516
same,relative viability,UMC-11; first compound 0.3162 µM,0.508
same,relative viability,UMC-11; first compound 1 µM,0.142
same,relative viability,NCI-H1563; first compound 0.01 µM,0.957
same,relative viability,NCI-H1563; first compound 0.03162 µM,0.833
same,relative viability,NCI-H1563; first compound 0.1 µM,0.872
same,relative viability,NCI-H1563; first compound 0.3162 µM,0.889
same,relative viability,NCI-H1563; first compound 1 µM,0.741
same,relative viability,NCI-H1944; first compound 0.01 µM,1.29
same,relative viability,NCI-H1944; first compound 0.03162 µM,1.22
same,relative viability,NCI-H1944; first compound 0.1 µM,1.2
same,relative viability,NCI-H1944; first compound 0.3162 µM,1.19
same,relative viability,NCI-H1944; first compound 1 µM,0.918
same,relative viability,NCI-H1651; first compound 0.01 µM,1
same,relative viability,NCI-H1651; first compound 0.03162 µM,0.87
same,relative viability,NCI-H1651; first compound 0.1 µM,0.894
same,relative viability,NCI-H1651; first compound 0.3162 µM,0.862
same,relative viability,NCI-H1651; first compound 1 µM,0.714
same,relative viability,LCLC-97TM1; first compound 0.01 µM,0.385
same,relative viability,LCLC-97TM1; first compound 0.03162 µM,0.337
same,relative viability,LCLC-97TM1; first compound 0.1 µM,0.317
same,relative viability,LCLC-97TM1; first compound 0.3162 µM,0.448
same,relative viability,LCLC-97TM1; first compound 1 µM,0.334
same,relative viability,ChaGo-K-1; first compound 0.01 µM,1.21
same,relative viability,ChaGo-K-1; first compound 0.03162 µM,1.04
same,relative viability,ChaGo-K-1; first compound 0.1 µM,1.14
same,relative viability,ChaGo-K-1; first compound 0.3162 µM,1.07
same,relative viability,ChaGo-K-1; first compound 1 µM,0.64
same,relative viability,HCC-44; first compound 0.01 µM,0.892
same,relative viability,HCC-44; first compound 0.03162 µM,0.808
same,relative viability,HCC-44; first compound 0.1 µM,0.854
same,relative viability,HCC-44; first compound 0.3162 µM,0.787
same,relative viability,HCC-44; first compound 1 µM,0.745
same,relative viability,NCI-H650; first compound 0.01 µM,0.882
same,relative viability,NCI-H650; first compound 0.03162 µM,0.594
same,relative viability,NCI-H650; first compound 0.1 µM,0.714
same,relative viability,NCI-H650; first compound 0.3162 µM,0.688
same,relative viability,NCI-H650; first compound 1 µM,0.466
same,relative viability,EPLC-272H; first compound 0.01 µM,0.895
same,relative viability,EPLC-272H; first compound 0.03162 µM,1.11
same,relative viability,EPLC-272H; first compound 0.1 µM,0.967
same,relative viability,EPLC-272H; first compound 0.3162 µM,0.859
same,relative viability,EPLC-272H; first compound 1 µM,0.75
same,relative viability,SK-MES-1; first compound 0.01 µM,1.05
same,relative viability,SK-MES-1; first compound 0.03162 µM,0.966
same,relative viability,SK-MES-1; first compound 0.1 µM,1.08
same,relative viability,SK-MES-1; first compound 0.3162 µM,0.999
same,relative viability,SK-MES-1; first compound 1 µM,0.614
same,relative viability,NCI-H2405; first compound 0.01 µM,0.94
same,relative viability,NCI-H2405; first compound 0.03162 µM,0.802
same,relative viability,NCI-H2405; first compound 0.1 µM,0.841
same,relative viability,NCI-H2405; first compound 0.3162 µM,0.819
same,relative viability,NCI-H2405; first compound 1 µM,0.398
same,relative viability,LCLC-103H; first compound 0.01 µM,1.15
same,relative viability,LCLC-103H; first compound 0.03162 µM,0.994
same,relative viability,LCLC-103H; first compound 0.1 µM,1.08
same,relative viability,LCLC-103H; first compound 0.3162 µM,1.01
same,relative viability,LCLC-103H; first compound 1 µM,1.04
same,relative viability,NCI-H322M; first compound 0.01 µM,1.04
same,relative viability,NCI-H322M; first compound 0.03162 µM,0.845
same,relative viability,NCI-H322M; first compound 0.1 µM,0.883
same,relative viability,NCI-H322M; first compound 0.3162 µM,0.962
same,relative viability,NCI-H322M; first compound 1 µM,0.417
same,relative viability,HCC-827; first compound 0.01 µM,0.948
same,relative viability,HCC-827; first compound 0.03162 µM,0.904
same,relative viability,HCC-827; first compound 0.1 µM,0.933
same,relative viability,HCC-827; first compound 0.3162 µM,0.965
same,relative viability,HCC-827; first compound 1 µM,0.843
same,relative viability,NCI-H520; first compound 0.01 µM,0.975
same,relative viability,NCI-H520; first compound 0.03162 µM,0.692
same,relative viability,NCI-H520; first compound 0.1 µM,0.477
same,relative viability,NCI-H520; first compound 0.3162 µM,0.504
same,relative viability,NCI-H520; first compound 1 µM,0.276
same,relative viability,NCI-H2087; first compound 0.01 µM,0.906
same,relative viability,NCI-H2087; first compound 0.03162 µM,0.879
same,relative viability,NCI-H2087; first compound 0.1 µM,1.02
same,relative viability,NCI-H2087; first compound 0.3162 µM,0.825
same,relative viability,NCI-H2087; first compound 1 µM,0.846
same,relative viability,NCI-H2085; first compound 0.01 µM,1.01
same,relative viability,NCI-H2085; first compound 0.03162 µM,0.889
same,relative viability,NCI-H2085; first compound 0.1 µM,0.839
same,relative viability,NCI-H2085; first compound 0.3162 µM,0.853
same,relative viability,NCI-H2085; first compound 1 µM,0.644
same,relative viability,EMC-BAC-2; first compound 0.01 µM,0.852
same,relative viability,EMC-BAC-2; first compound 0.03162 µM,0.718
same,relative viability,EMC-BAC-2; first compound 0.1 µM,0.777
same,relative viability,EMC-BAC-2; first compound 0.3162 µM,0.797
same,relative viability,EMC-BAC-2; first compound 1 µM,0.706
same,relative viability,H3255; first compound 0.01 µM,0.997
same,relative viability,H3255; first compound 0.03162 µM,0.88
same,relative viability,H3255; first compound 0.1 µM,0.891
same,relative viability,H3255; first compound 0.3162 µM,0.867
same,relative viability,H3255; first compound 1 µM,0.42
same,relative viability,NCI-H2023; first compound 0.01 µM,0.573
same,relative viability,NCI-H2023; first compound 0.03162 µM,0.612
same,relative viability,NCI-H2023; first compound 0.1 µM,0.417
same,relative viability,NCI-H2023; first compound 0.3162 µM,0.209
same,relative viability,NCI-H2023; first compound 1 µM,0.118
